Columns and labels:
Assay in all cases: Test B pre-/postemergence plant response
Type in all cases: in vivo
Details in all cases: Postemergence
[1] = test system: kochia (Kochia scoparia)
In short: (§1)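 Pre-em in loam/sand; post-em at 1–4 leaf (2–18 cm) in peat mix. Solvent + surfactant formulation. Greenhouse 13–15 d; visual % control vs untreated, 0–100.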

[2] = test system: woolly cupgrass (Eriochloa villosa)
In short: as §1

[3] = test system: velvetleaf (Abutilon theophrasti)
In short: as §1

[4] = test system: Surinam grass (Brachiaria decumbens)
In short: as §1

[5] = test system: goosegrass (Eleusine indica)
In short: as §1

[6] = test system: johnsongrass (Sorghum halepense)
In short: as §1

[7] = test system: pigweed (Amaranthus retroflexus)
In short: as §1

[8] = test system: large crabgrass (Digitaria sanguinalis)
In short: as §1

[9] = test system: downy bromegrass (Bromus tectorum)
In short: as §1

[10] = test system: ragweed (common ragweed, Ambrosia elatior)
In short: as §1

[11] = test system: wild oat (Avena fatua)
In short: as §1

[12] = test system: lambsquarters (Chenopodium album)
In short: as §1

[13] = test system: soybean (Glycine max)
In short: as §1

[14] = test system: wheat (Triticum aestivum)
In short: as §1

[15] = test system: yellow nutsedge (Cyperus esculentus)
In short: as §1

[16] = test system: blackgrass (Alopecurus myosuroides)
In short: as §1

[17] = test system: corn (Zea mays)
In short: as §1

[18] = test system: Italian ryegrass (Lolium multiflorum)
In short: as §1

[19] = 31 g ai/ha, 0 to 100 scale (0 no effect, 100 complete control)
[20] = 125 g ai/ha, scale 0 (no effect) to 100 (complete control), 13 to 15 days
[21] = 250 g ai/ha, scale 0 to 100 (0 no effect, 100 complete control), 13 to 15 days
[22] = 62 g ai/ha, scale 0 to 100 (0 no effect, 100 complete control)

CCCCn1c(-c2ccccc2)ncc(C(=O)C2=C(O)C3CCC(C3)C2=O)c1=O (stereo not shown) [Compound 240] was tested, and the “Plant response rating, Kochia” value [1, 19] was 80, the “Plant response rating, Kochia” value [1, 20] was 100 and the “Plant response rating, Kochia” value [1, 21] was 100. For the same compound, the “Plant response rating, Kochia” value [1, 22] was 98, the “Plant response rating, Cupgrass, Woolly” value [2, 19] was 98 and the “Plant response rating, Cupgrass, Woolly” value [2, 20] was 100. The “Plant response rating, Cupgrass, Woolly” value [2, 21] was 100, the “Plant response rating, Cupgrass, Woolly” value [2, 22] was 100 and the “Plant response rating, Velvetleaf” value [3, 19] was 75. For the same compound, the “Plant response rating, Velvetleaf” value [3, 20] was 85, the “Plant response rating, Velvetleaf” value [3, 21] was 100 and the “Plant response rating, Velvetleaf” value [3, 22] was 85. For the same compound, the “Plant response rating, Surinam Grass” value [4, 19] was 95, the “Plant response rating, Surinam Grass” value [4, 20] was 100 and the “Plant response rating, Surinam Grass” value [4, 21] was 100. For the same compound, the “Plant response rating, Surinam Grass” value [4, 22] was 98, the “Plant response rating, Goosegrass” value [5, 19] was 95 and the “Plant response rating, Goosegrass” value [5, 20] was 98. For the same compound, the “Plant response rating, Goosegrass” value [5, 21] was 98, the “Plant response rating, Goosegrass” value [5, 22] was 98 and the “Plant response rating, Johnsongrass” value [6, 20] was 100. The “Plant response rating, Johnsongrass” value [6, 21] was 100, the “Plant response rating, Johnsongrass” value [6, 22] was 100 and the “Plant response rating, Pigweed” value [7, 20] was 100. The “Plant response rating, Pigweed” value [7, 21] was 100, the “Plant response rating, Pigweed” value [7, 22] was 100 and the “Plant response rating, Crabgrass, Large” value [8, 19] was 80. The “Plant response rating, Crabgrass, Large” value [8, 20] was 100, the “Plant response rating, Crabgrass, Large” value [8, 21] was 100 and the “Plant response rating, Crabgrass, Large” value [8, 22] was 98. The “Plant response rating, Bromegrass, Downy” value [9, 19] was 10, the “Plant response rating, Bromegrass, Downy” value [9, 20] was 25 and the “Plant response rating, Bromegrass, Downy” value [9, 21] was 50. The “Plant response rating, Bromegrass, Downy” value [9, 22] was 20, the “Plant response rating, Ragweed” value [10, 19] was 98 and the “Plant response rating, Ragweed” value [10, 20] was 100. For the same compound, the “Plant response rating, Ragweed” value [10, 21] was 100, the “Plant response rating, Ragweed” value [10, 22] was 98 and the “Plant response rating, Oat, Wild” value [11, 19] was 25. The “Plant response rating, Oat, Wild” value [11, 20] was 45, the “Plant response rating, Oat, Wild” value [11, 21] was 60 and the “Plant response rating, Oat, Wild” value [11, 22] was 40. For the same compound, the “Plant response rating, Lambsquarters” value [12, 19] was 98, the “Plant response rating, Lambsquarters” value [12, 20] was 100 and the “Plant response rating, Lambsquarters” value [12, 21] was 100. The “Plant response rating, Lambsquarters” value [12, 22] was 100, the “Plant response rating, Soybean” value [13, 19] was 95 and the “Plant response rating, Soybean” value [13, 20] was 95. The “Plant response rating, Soybean” value [13, 21] was 100, the “Plant response rating, Soybean” value [13, 22] was 95 and the “Plant response rating, Wheat” value [14, 19] was 30. The “Plant response rating, Wheat” value [14, 20] was 50, the “Plant response rating, Wheat” value [14, 21] was 50 and the “Plant response rating, Wheat” value [14, 22] was 35. The “Plant response rating, Nutsedge, Yellow” value [15, 19] was 10, the “Plant response rating, Nutsedge, Yellow” value [15, 20] was 20 and the “Plant response rating, Nutsedge, Yellow” value [15, 21] was 45. The “Plant response rating, Nutsedge, Yellow” value [15, 22] was 15, the “Plant response rating, Blackgrass” value [16, 19] was 40 and the “Plant response rating, Blackgrass” value [16, 20] was 65. For the same compound, the “Plant response rating, Blackgrass” value [16, 21] was 65, the “Plant response rating, Blackgrass” value [16, 22] was 50 and the “Plant response rating, Corn” value [17, 19] was 90. The “Plant response rating, Corn” value [17, 20] was 100, the “Plant response rating, Corn” value [17, 21] was 100 and the “Plant response rating, Corn” value [17, 22] was 95. For the same compound, the “Plant response rating, Ryegrass, Italian” value [18, 19] was 10, the “Plant response rating, Ryegrass, Italian” value [18, 20] was 40 and the “Plant response rating, Ryegrass, Italian” value [18, 21] was 40. The “Plant response rating, Ryegrass, Italian” value [18, 22] was 15.
